Test results from US12098144B2, “Piperazine indazole glucocorticoid receptor antagonists” (Corcept Therapeutics Incorporated, priority 2021, dated 2024).

Molecular target: T1, glucocorticoid receptor (Homo sapiens, UniProt P04150)
T1 construct: endogenous in cells; ATCC cat
T1 sequence (P04150 1-777): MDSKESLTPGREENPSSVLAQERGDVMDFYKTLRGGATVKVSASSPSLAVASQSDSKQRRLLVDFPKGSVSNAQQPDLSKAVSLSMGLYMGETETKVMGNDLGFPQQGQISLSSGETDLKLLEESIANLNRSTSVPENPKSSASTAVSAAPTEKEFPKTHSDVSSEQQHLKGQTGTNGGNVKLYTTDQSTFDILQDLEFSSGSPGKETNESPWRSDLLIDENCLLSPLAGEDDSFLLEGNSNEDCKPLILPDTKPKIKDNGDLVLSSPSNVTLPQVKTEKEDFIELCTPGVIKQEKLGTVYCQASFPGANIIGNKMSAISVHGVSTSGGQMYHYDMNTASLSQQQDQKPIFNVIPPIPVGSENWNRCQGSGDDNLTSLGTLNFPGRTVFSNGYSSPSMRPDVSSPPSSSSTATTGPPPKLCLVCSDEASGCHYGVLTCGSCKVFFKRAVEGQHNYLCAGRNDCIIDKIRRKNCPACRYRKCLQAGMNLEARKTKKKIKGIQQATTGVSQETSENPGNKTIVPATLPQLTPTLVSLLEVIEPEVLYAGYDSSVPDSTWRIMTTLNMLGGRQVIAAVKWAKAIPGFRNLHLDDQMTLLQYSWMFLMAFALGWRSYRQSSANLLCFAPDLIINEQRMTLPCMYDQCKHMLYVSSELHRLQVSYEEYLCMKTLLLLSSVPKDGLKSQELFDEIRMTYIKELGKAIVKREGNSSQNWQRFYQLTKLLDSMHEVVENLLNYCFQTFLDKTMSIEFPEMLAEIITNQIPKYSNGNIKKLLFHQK
Experiment: Hep G2 TAT IC50: inhibition of dexamethasone-induced TAT in HepG2 cells (384 well)
Format: cell-based
Procedure: Glucocorticoid mediated activation of TAT occurs by transactivation of glucocorticoid response elements in the TAT promoter by glucocorticoid receptor/agonist complex.
HepG2 cells were cultured using MEME media supplemented with 10% (v/v) foetal bovine serum, 2 mM L-glutamine, 1% (v/v) NEAA, and 1% (v/v) penstrep, at 37° C., 5%/95% (v/v) CO2/air.
Compounds were diluted from a 10 mM stock via an Echo Acoustic liquid handler into 10 μL assay media to generate a 10-point half-log dilution curve.
HepG2 cells were then lysed with 8 μL of cell lysis buffer containing a protease inhibitor cocktail for 15 minutes at 25° C. […] After a 2-hour incubation at 37° C. the reaction was terminated by the addition of 8 μL of 5 M aqueous potassium hydroxide solution, and the plates incubated for a further 30 minutes at 37° C.
[compound] and fitting the data to a 4-parameter logistic equation.

| SMILES | IC50 [µM] |
| --- | --- |
| COc1ncc(-n2ncc3cc(C4CN(S(=O)(=O)c5cnn(C)n5)CCN4CCC(F)(F)F)c(C)cc32)cc1C (stereo not drawn) [Example 206, 1-(6-methoxy-5-methyl-3-pyridyl)-6-methyl-5-(4-(2-methyltriazol-4-yl)sulfonyl-1-(3,3,3-trifluoropropyl)piperazin-2-yl)indazole] | 6.12 |
| Cc1cc2c(cnn2-c2ccc(F)cc2)cc1C1CN(S(=O)(=O)N2CCOCC2)CCN1CC1CCC1 (single isomer, unassigned) [Example 178, 4-(4-(cyclobutylmethyl)-3-[1-(4-fluorophenyl)-6-methyl-indazol-5-yl]piperazin-1-yl)sulfonylmorpholine] | 3.43 |
| Cc1cc2c(cnn2-c2ccc(F)cc2)cc1C1CN(S(=O)(=O)N(C)C)CCN1CC1CCC1 (single isomer, unassigned) [Example 182, 4-(cyclobutylmethyl)-3-(1-(4-fluorophenyl)-6-methyl-indazol-5-yl)-N,N-dimethyl-piperazine-1-sulfonamide] | 3.59 |
| Cc1cc2c(cnn2-c2ccc(F)cc2)cc1C1CN(S(=O)(=O)c2cnn(C)n2)CCCN1CCC(F)(F)F (stereo not drawn) [Example 173, 1-(4-fluorophenyl)-6-methyl-5-(4-(2-methyltriazol-4-yl)sulfonyl-1-(3,3,3-trifluoropropyl)-1,4-diazepan-2-yl)indazole] | 2.75 |
| Cc1cc(-n2ncc3cc(C4CN(S(=O)(=O)c5cnn(C)n5)CCN4CCC(F)(F)F)c(C)cc32)ncn1 (stereo not drawn) [Example 203, 6-methyl-1-(6-methylpyrimidin-4-yl)-5-(4-(2-methyltriazol-4-yl)sulfonyl-1-(3,3,3-trifluoropropyl)piperazin-2-yl)indazole] | 9.33 |
| Cc1cnnc(-n2ncc3cc(C4CN(S(=O)(=O)c5cnn(C)n5)CCN4CCC(F)(F)F)c(C)cc32)c1 (stereo not drawn) [Example 204, 6-methyl-1-(5-methylpyridazin-3-yl)-5-(4-(2-methyltriazol-4-yl)sulfonyl-1-(3,3,3-trifluoropropyl)piperazin-2-yl)indazole] | 3.85 |
| COc1ccc(-n2ncc3cc(C4CN(S(=O)(=O)c5cnn(C)n5)CCN4CCC(F)(F)F)c(C)cc32)cc1 (stereo not drawn) [Example 205, 1-(4-methoxyphenyl)-6-methyl-5-(4-(2-methyltriazol-4-yl)sulfonyl-1-(3,3,3-trifluoropropyl)piperazin-2-yl)indazole] | 2.88 |
| Cc1cc2c(cnn2-c2ccc(F)cc2)cc1C1CN(S(=O)(=O)N2CCOCC2)CCN1Cc1ccccc1 (single isomer, unassigned) [Example 214, 4-(4-benzyl-3-(1-(4-fluorophenyl)-6-methyl-indazol-5-yl)piperazin-1-yl)sulfonylmorpholine] | 2.75 |
| COc1cc2c(cnn2-c2ccc(F)cc2)cc1C1CN(S(=O)(=O)N2CCOCC2)CCN1CCC(F)(F)F (stereo not drawn) [Example 192, 4-(3-(1-(4-fluorophenyl)-6-methoxy-indazol-5-yl)-4-(3,3,3-trifluoropropyl)piperazin-1-yl)sulfonylmorpholine] | 3.16 |
| COc1cc2c(cnn2-c2ccc(F)cc2)cc1C1CN(S(=O)(=O)N2CCOCC2)CCN1CC1CC(F)(F)C1 (stereo not drawn) [Example 193, 4-(4-((3,3-difluorocyclobutyl)methyl)-3-(1-(4-fluorophenyl)-6-methoxy-indazol-5-yl)piperazin-1-yl)sulfonylmorpholine] | 2.79 |

Now those with a lower IC50, led by results:

| IC50 [µM] | SMILES |
| --- | --- |
| 2.4 | Cc1nc(S(=O)(=O)N2CCN(CC3CCCC3)C(c3cc4cnn(-c5ccc(F)cc5)c4cc3C)C2)cs1 (single isomer, unassigned) [Example 186, 4-(4-(cyclopentylmethyl)-3-(1-(4-fluorophenyl)-6-methyl-indazol-5-yl)piperazin-1-yl)sulfonyl-2-methyl-thiazole] |
| 2.24 | COc1cc2c(cnn2-c2ccc(F)cc2)cc1C1CN(S(=O)(=O)N(C)C)CCN1CC1CC(F)(F)C1 (stereo not drawn) [Example 213, 4-((3,3-difluorocyclobutyl)methyl)-3-(1-(4-fluorophenyl)-6-methoxy-indazol-5-yl)-N,N-dimethyl-piperazine-1-sulfonamide] |
| 2.09 | Cc1cc2c(cnn2-c2ccc(F)cc2)cc1C1CN(S(=O)(=O)N2CCOCC2)CCN1CC1CCCC1 (single isomer, unassigned) [Example 180, 4-(4-(cyclopentylmethyl)-3-(1-(4-fluorophenyl)-6-methyl-indazol-5-yl)piperazin-1-yl)sulfonylmorpholine] |
| 2.02 | Cc1cc2c(cnn2-c2ccc(F)cc2)cc1C1CN(S(=O)(=O)N2CCOCC2)CCN1CC1CC(F)(F)C1 (single isomer, unassigned) [Example 179, 4-(4-((3,3-difluorocyclobutyl)methyl)-3-(1-(4-fluorophenyl)-6-methyl-indazol-5-yl)piperazin-1-yl)sulfonylmorpholine] |
| 1.07 | Cc1cc2c(cnn2-c2ccc(F)cc2)cc1C1CN(S(=O)(=O)c2cccnn2)CCN1CC(C)C (single isomer, unassigned) [Example 190, 1-(4-fluorophenyl)-5-(1-isobutyl-4-pyridazin-3-ylsulfonyl-piperazin-2-yl)-6-methyl-indazole] |
| 1.03 | Cc1cc2c(cnn2-c2ccc(F)c(CO)c2)cc1C1CN(S(=O)(=O)c2cnn(C)n2)CCN1CCC(F)(F)F (stereo not drawn) [Example 202, (2-fluoro-5-(6-methyl-5-(4-(2-methyltriazol-4-yl)sulfonyl-1-(3,3,3-trifluoropropyl)piperazin-2-yl)indazol-1-yl)phenyl)methanol] |
| 0.933 | Cc1cc2c(cnn2-c2cc(F)c(=O)n(C)c2)cc1C1CN(S(=O)(=O)c2cnn(C)n2)CCN1CCC(F)(F)F (stereo not drawn) [Example 207, 3-fluoro-1-methyl-5-(6-methyl-5-(4-(2-methyltriazol-4-yl)sulfonyl-1-(3,3,3-trifluoropropyl)piperazin-2-yl)indazol-1-yl)pyridin-2-one] |
| 0.841 | Cc1cc2c(cnn2-c2ccc(F)cc2)cc1C1CN(S(=O)(=O)c2cccnn2)CCN1CCC(F)(F)F (single isomer, unassigned) [Example 176, 1-(4-fluorophenyl)-6-methyl-5-(4-pyridazin-3-ylsulfonyl-1-(3,3,3-trifluoropropyl)piperazin-2-yl)indazole] |
| 0.443 | Cc1cc2c(cnn2-c2cc(C)c(=O)n(C)c2)cc1C1CN(S(=O)(=O)c2cccnc2)CCN1CCC(F)(F)F (stereo not drawn) [Example 194, 1,3-dimethyl-5-(6-methyl-5-(4-(3-pyridylsulfonyl)-1-(3,3,3-trifluoropropyl)piperazin-2-yl)indazol-1-yl)pyridin-2-one] |
| 0.253 | Cc1cc2c(cnn2-c2cc(C)c(=O)n(C)c2)cc1C1CN(S(=O)(=O)c2ccccn2)CCN1CCC(F)(F)F (stereo not drawn) [Example 195, 1,3-dimethyl-5-(6-methyl-5-(4-(2-pyridylsulfonyl)-1-(3,3,3-trifluoropropyl)piperazin-2-yl)indazol-1-yl)pyridin-2-one] |
| 0.191 | CCn1cc(S(=O)(=O)N2CCN(CCC(F)(F)F)C(c3cc4cnn(-c5cc(C)c(=O)n(C)c5)c4cc3C)C2)cn1 (stereo not drawn) [Example 174, 5-(5-(4-(1-ethylpyrazol-4-yl)sulfonyl-1-(3,3,3-trifluoropropyl)piperazin-2-yl)-6-methyl-indazol-1-yl)-1,3-dimethyl-pyridin-2-one] |
